Results taken from the NIST ThermoML archive (doi:10.1021/je3003404).
± gives the expanded uncertainty stated by the source.

Experiment: mn = molality of the nth substance listed, in mol/kg
Conditions: 101 kPa, Liquid; for viscosity: Capillary tube (Ostwald / Ubbelohde) method; for electrical conductivity: Dip type conductivity cell; for mass density: Pycnometric method; for speed of sound: Sing-around technique in a fixed-path interferometer

CCCCCCCCCCCCCCCC[N+](C)(C)CC.[Br-] [ethylhexadecyldimethylammonium bromide] + O
Conditions	electrical conductivity [S/m]	mass density [kg/m3]	speed of sound [m/s]	viscosity [mPa·s]
298.15 K, m1 = 0.0002	0.0027 ± 0.00011	996.43 ± 0.43	1498.5 ± 0.94	0.8803 ± 0.036
298.15 K, m1 = 0.0005	0.00707 ± 0.00028	996.47 ± 0.43	1499.3 ± 0.94	0.8841 ± 0.036
298.15 K, m1 = 0.0008	0.0105 ± 0.00042	996.51 ± 0.42	1500 ± 0.94	0.887 ± 0.036
298.15 K, m1 = 0.0012	0.0119 ± 0.00048	996.54 ± 0.41	1500.3 ± 0.94	0.8904 ± 0.036
298.15 K, m1 = 0.0016	0.0127 ± 0.00051	996.56 ± 0.41	1500.1 ± 0.94	0.8929 ± 0.036
298.15 K, m1 = 0.002	0.0138 ± 0.00055	996.58 ± 0.41	1499.9 ± 0.94	0.8952 ± 0.036
298.15 K, m1 = 0.0025	0.0152 ± 0.00061	996.6 ± 0.41	1499.9 ± 0.94	0.8979 ± 0.036
298.15 K, m1 = 0.003	0.0161 ± 0.00065	996.62 ± 0.41	1499.7 ± 0.94	0.9007 ± 0.037
303.15 K, m1 = 0.0002	0.00301 ± 0.00012	994.49 ± 0.42	1510.3 ± 0.93	0.7889 ± 0.032
303.15 K, m1 = 0.0005	0.00808 ± 0.00032	994.52 ± 0.43	1511 ± 0.93	0.792 ± 0.032
303.15 K, m1 = 0.0008	0.0127 ± 0.00051	994.56 ± 0.42	1511.8 ± 0.93	0.7945 ± 0.032
303.15 K, m1 = 0.0012	0.0144 ± 0.00058	994.59 ± 0.42	1512.3 ± 0.93	0.7978 ± 0.032
303.15 K, m1 = 0.0016	0.0153 ± 0.00061	994.61 ± 0.41	1512.2 ± 0.93	0.8001 ± 0.032
303.15 K, m1 = 0.002	0.0167 ± 0.00067	994.62 ± 0.42	1512 ± 0.93	0.8021 ± 0.033
303.15 K, m1 = 0.0025	0.0178 ± 0.00071	994.64 ± 0.42	1511.8 ± 0.93	0.8047 ± 0.033
303.15 K, m1 = 0.003	0.0194 ± 0.00078	994.66 ± 0.42	1511.6 ± 0.93	0.807 ± 0.033
308.15 K, m1 = 0.0002	0.00338 ± 0.00014	992.55 ± 0.43	1518.6 ± 0.93	0.7097 ± 0.029
308.15 K, m1 = 0.0005	0.00879 ± 0.00035	992.58 ± 0.43	1519.2 ± 0.94	0.7125 ± 0.029
308.15 K, m1 = 0.0008	0.014 ± 0.00056	992.61 ± 0.42	1519.9 ± 0.94	0.7157 ± 0.029
308.15 K, m1 = 0.0012	0.0161 ± 0.00065	992.63 ± 0.42	1520.4 ± 0.94	0.719 ± 0.029
308.15 K, m1 = 0.0016	0.017 ± 0.00068	992.65 ± 0.42	1520.2 ± 0.94	0.7209 ± 0.029
308.15 K, m1 = 0.002	0.0185 ± 0.00074	992.66 ± 0.42	1520 ± 0.94	0.7228 ± 0.029
308.15 K, m1 = 0.0025	0.0195 ± 0.00078	992.67 ± 0.42	1520 ± 0.94	0.725 ± 0.029
308.15 K, m1 = 0.003	0.0217 ± 0.00087	992.69 ± 0.42	1519.5 ± 0.94	0.7271 ± 0.03
313.15 K, m1 = 0.0002	0.00364 ± 0.00015	990.61 ± 0.43	1528.8 ± 0.94	0.641 ± 0.026
313.15 K, m1 = 0.0005	0.00952 ± 0.00038	990.63 ± 0.44	1529.9 ± 0.94	0.6432 ± 0.026
313.15 K, m1 = 0.0008	0.0153 ± 0.00061	990.67 ± 0.43	1530.4 ± 0.94	0.6469 ± 0.026
313.15 K, m1 = 0.0012	0.0183 ± 0.00073	990.68 ± 0.42	1531.2 ± 0.94	0.6502 ± 0.026
313.15 K, m1 = 0.0016	0.0187 ± 0.00075	990.69 ± 0.43	1531.1 ± 0.94	0.652 ± 0.026
313.15 K, m1 = 0.002	0.0209 ± 0.00084	990.7 ± 0.43	1530.9 ± 0.94	0.6539 ± 0.027
313.15 K, m1 = 0.0025	0.0224 ± 0.0009	990.72 ± 0.43	1530.7 ± 0.94	0.6558 ± 0.027
313.15 K, m1 = 0.003	0.0243 ± 0.00097	990.73 ± 0.43	1530.5 ± 0.94	0.6576 ± 0.027
318.15 K, m1 = 0.0002	0.00396 ± 0.00016	988.67 ± 0.43	1537.1 ± 0.93	0.582 ± 0.024
318.15 K, m1 = 0.0005	0.0107 ± 0.00043	988.68 ± 0.43	1538.2 ± 0.94	0.5832 ± 0.024
318.15 K, m1 = 0.0008	0.0171 ± 0.00068	988.7 ± 0.44	1538.5 ± 0.94	0.587 ± 0.024
318.15 K, m1 = 0.0012	0.021 ± 0.00084	988.73 ± 0.43	1539.4 ± 0.94	0.5903 ± 0.024
318.15 K, m1 = 0.0016	0.023 ± 0.00092	988.74 ± 0.43	1539.2 ± 0.94	0.5922 ± 0.024
318.15 K, m1 = 0.002	0.025 ± 0.001	988.75 ± 0.43	1539 ± 0.94	0.5935 ± 0.024
318.15 K, m1 = 0.0025	0.0265 ± 0.0011	988.76 ± 0.43	1538.8 ± 0.94	0.5954 ± 0.024
318.15 K, m1 = 0.003	0.028 ± 0.0011	988.78 ± 0.43	1538.6 ± 0.94	0.5971 ± 0.024
323.15 K, m1 = 0.0002	–	986.71 ± 0.44	1541.7 ± 0.93	0.5274 ± 0.022
323.15 K, m1 = 0.0005	–	986.72 ± 0.44	1542.8 ± 0.93	0.5298 ± 0.022
323.15 K, m1 = 0.0008	–	986.74 ± 0.44	1543.5 ± 0.93	0.5334 ± 0.022
323.15 K, m1 = 0.0012	–	986.76 ± 0.44	1544.5 ± 0.93	0.5357 ± 0.022
323.15 K, m1 = 0.0016	–	986.78 ± 0.44	1544.3 ± 0.94	0.5384 ± 0.022
323.15 K, m1 = 0.002	–	986.79 ± 0.44	1544.1 ± 0.94	0.5398 ± 0.022
323.15 K, m1 = 0.0025	–	986.8 ± 0.44	1544 ± 0.94	0.5413 ± 0.022
323.15 K, m1 = 0.003	–	986.81 ± 0.44	1543.8 ± 0.94	0.5426 ± 0.022
